Literature values, collected in patent EP0860164A1, “Cosmetic and dermatological composition for sun protection containing triazine derivates and butylenglycol diesters” (Beiersdorf Aktiengesellschaft, priority 1997, dated 1998).

Settings: maximum amount of the filter that known solvents (Bekannte Lösungsmittel) can dissolve

With `CCCCC(CC)COC(=O)c1ccc(Nc2nc(Nc3ccc(C(=O)OCC(CC)CCCC)cc3)nc(Nc3ccc(C(=O)OCC(CC)CCCC)cc3)n2)cc1` (stereo not shown) [UVINUL® T 150, 4,4',4''-(1,3,5-Triazin-2,4,6-triyltriimino)-tris-benzoesäure-tris(2-ethylhexylester)] as the compound, how does the “Löslichkeit in Lipiden” value read?
Its value is no more than 15 Gew.-%.
